Source: patent publication US10059996B2, “Susceptibility to and stratification for monoaminergic antidepressants” (priority 2012, dated 2018)
Entries after “also recorded” stand apart in the source; their conditions may differ. Structures can show the parent of a compound that is named as a salt.

Columns and labels:
SH-Sy5Y cells = experiment: CellTiter-Glo Luminescent Cell Viability Assay (cytotoxic concentrations); conditions: 10 μM, 30 μM, 50 μM Venlafaxine
Procedure: Cells were maintained at 37° C. in a humidified atmosphere of 5% CO2 in atmosphere. To determine cytotoxic concentrations of fluoxetine and venlafaxine by CellTiter-Glo Luminescent Cell Viability Assay (Promega, Madison, Wis.) 1.5×10^5 cells were plated in 96 well plates and grown for 24 hours. Three wells at a time were incubated with different amounts of fluoxetine hydrochloride or venlafaxine hydrochloride (both Sigma-Aldrich Germany, Taufkirchen), both solved in sterile deionized water at 4 mg/mL. […] After incubation for 24 hours cytotoxicity was documented by microscope photography and measured using a GloMax Multi+ Detection System (Promega, Madison, Wis.).

[1] = test system: BDNF-gene exon-IV promoter construct; experiment: Luciferase-based reporter gene assay with BDNF-gene exon-IV promoter construct in SH-SY5Y cells; format: cell-based, human; conditions: 48 h incubation, fluoxetine 3, 5, 10 μM or venlafaxine 10, 30, 50 μM; for change of luciferase reporter gene activity (luminescence), methylated construct: Sss1-methylated BDNF-gene exon-IV promoter in pGL4.14, SH-SY5Y; for change of luciferase reporter gene activity (luminescence), unmethylated construct: unmethylated BDNF-gene exon-IV promoter in pGL4.14, SH-SY5Y, hydrochloride

Structure (SMILES)	cytotoxicity at the concentrations used (SH-Sy5Y cells)	change of luciferase reporter gene activity (luminescence), methylated construct [1]	change of luciferase reporter gene activity (luminescence), unmethylated construct [1]
COc1ccc(C(CN(C)C)C2(O)CCCCC2)cc1 (centres unmarked) [venlafaxine, venlafaxine hydrochloride]	non-toxic	did not change expression levels	decrease of reporter gene activity; also recorded: significant decrease of luciferase expression
CNCCC(Oc1ccc(C(F)(F)F)cc1)c1ccccc1 (centres unmarked) [fluoxetine, fluoxetine hydrochloride]		did not change expression levels	decrease of reporter gene activity; also recorded: significant decrease of luciferase expression
